Results taken from the NIST ThermoML archive (doi:10.1021/je100362p).
± gives the expanded uncertainty stated by the source.

What was measured:
[1] = xn = mol fraction of the nth substance listed; conditions: 101 kPa, Liquid; for speed of sound: Sing-around technique in a fixed-path interferometer
[2] = refractive index (Na D-line) (dimensionless); xn = mol fraction of the nth substance listed; conditions: 101 kPa, Liquid, Standard Abbe refractometry

Cc1ccccc1O [2-methylphenol] + CCCCCCCCCCO
Conditions | mass density, 298.15 K [kg/m3] | mass density, 303.15 K [kg/m3] | mass density, 308.15 K [kg/m3] | refractive index, 298.15 K | refractive index, 303.15 K | refractive index, 308.15 K | speed of sound, 298.15 K [m/s] | speed of sound, 303.15 K [m/s] | speed of sound, 308.15 K [m/s]
[1], x1 = 0.0861 | 837.502 ± 0.53 | 834.018 ± 0.54 | 830.549 ± 0.54 | – | – | – | 1385.1 ± 1.1 | 1368 ± 1.1 | 1351.1 ± 1.1
[1], x1 = 0.1516 | 846.353 ± 0.51 | 842.829 ± 0.52 | 839.316 ± 0.53 | – | – | – | 1389.3 ± 1.1 | 1372.1 ± 1.1 | 1355.2 ± 1.1
[1], x1 = 0.2077 | 854.319 ± 0.49 | 850.761 ± 0.5 | 847.206 ± 0.51 | – | – | – | 1393 ± 1.1 | 1375.7 ± 1.1 | 1358.8 ± 1.1
[1], x1 = 0.2717 | 863.895 ± 0.47 | 860.293 ± 0.48 | 856.691 ± 0.49 | – | – | – | 1397.2 ± 1.1 | 1379.9 ± 1.1 | 1363.1 ± 1
[1], x1 = 0.334 | 873.784 ± 0.45 | 870.135 ± 0.46 | 866.475 ± 0.47 | – | – | – | 1401.6 ± 1.1 | 1384.3 ± 1.1 | 1367.4 ± 1
[1], x1 = 0.4103 | 886.741 ± 0.43 | 883.035 ± 0.43 | 879.298 ± 0.44 | – | – | – | 1407.6 ± 1.1 | 1390.3 ± 1.1 | 1373.2 ± 1
[1], x1 = 0.4797 | 899.465 ± 0.4 | 895.693 ± 0.41 | 891.869 ± 0.41 | – | – | – | 1413.7 ± 1.1 | 1396.5 ± 1 | 1379.2 ± 1
[1], x1 = 0.5545 | 914.345 ± 0.37 | 910.475 ± 0.38 | 906.559 ± 0.38 | – | – | – | 1421.3 ± 1.1 | 1404 ± 1 | 1386.8 ± 1
[1], x1 = 0.6165 | 927.694 ± 0.34 | 923.735 ± 0.35 | 919.727 ± 0.36 | – | – | – | 1428.4 ± 1.1 | 1411.1 ± 1 | 1394.1 ± 1
[1], x1 = 0.6875 | 944.316 ± 0.31 | 940.209 ± 0.32 | 936.089 ± 0.32 | – | – | – | 1437.8 ± 1.1 | 1420.7 ± 1 | 1403.7 ± 1
[1], x1 = 0.7538 | 961.343 ± 0.28 | 957.079 ± 0.28 | 952.828 ± 0.29 | – | – | – | 1448.2 ± 1.1 | 1431 ± 1 | 1414.1 ± 1
[1], x1 = 0.8245 | 981.399 ± 0.24 | 976.894 ± 0.24 | 972.475 ± 0.25 | – | – | – | 1461.2 ± 1.1 | 1444 ± 1 | 1426.8 ± 1
[1], x1 = 0.8811 | 999.121 ± 0.2 | 994.379 ± 0.21 | 989.769 ± 0.22 | – | – | – | 1473.5 ± 1.1 | 1456.2 ± 1 | 1439.1 ± 1
[1], x1 = 0.941 | 1019.75 ± 0.24 | 1014.71 ± 0.23 | 1009.79 ± 0.22 | – | – | – | 1488.8 ± 1.1 | 1471.6 ± 1.1 | 1454.4 ± 1
[1], x1 = 1 | 1042.32 ± 0.27 | 1036.94 ± 0.26 | 1031.55 ± 0.25 | – | – | – | 1504.6 ± 1.1 | 1487.4 ± 1.1 | 1470.3 ± 1
[2], x1 = 0.0861 | – | – | – | 1.43944 ± 0.00056 | 1.43742 ± 0.00057 | 1.43507 ± 0.00057 | – | – | –
[2], x1 = 0.1516 | – | – | – | 1.44351 ± 0.00057 | 1.44139 ± 0.00058 | 1.43893 ± 0.00059 | – | – | –
[2], x1 = 0.2077 | – | – | – | 1.44727 ± 0.00058 | 1.44505 ± 0.0006 | 1.44249 ± 0.00061 | – | – | –
[2], x1 = 0.2717 | – | – | – | 1.45185 ± 0.00061 | 1.44952 ± 0.00061 | 1.44685 ± 0.00062 | – | – | –
[2], x1 = 0.334 | – | – | – | 1.45667 ± 0.00063 | 1.45426 ± 0.00063 | 1.45145 ± 0.00064 | – | – | –
[2], x1 = 0.4103 | – | – | – | 1.46311 ± 0.00065 | 1.46058 ± 0.00066 | 1.45761 ± 0.00066 | – | – | –
[2], x1 = 0.4797 | – | – | – | 1.46956 ± 0.00068 | 1.46691 ± 0.00068 | 1.46379 ± 0.00068 | – | – | –
[2], x1 = 0.5545 | – | – | – | 1.47719 ± 0.00069 | 1.47444 ± 0.0007 | 1.47117 ± 0.0007 | – | – | –
[2], x1 = 0.6165 | – | – | – | 1.48412 ± 0.0007 | 1.48132 ± 0.00071 | 1.47792 ± 0.00072 | – | – | –
[2], x1 = 0.6875 | – | – | – | 1.49283 ± 0.00072 | 1.49001 ± 0.00073 | 1.48643 ± 0.00075 | – | – | –
[2], x1 = 0.7538 | – | – | – | 1.50182 ± 0.00074 | 1.49892 ± 0.00075 | 1.49522 ± 0.00076 | – | – | –
[2], x1 = 0.8245 | – | – | – | 1.51242 ± 0.00074 | 1.50948 ± 0.00076 | 1.50566 ± 0.00078 | – | – | –
[2], x1 = 0.8811 | – | – | – | 1.52175 ± 0.00074 | 1.51879 ± 0.00077 | 1.51489 ± 0.0008 | – | – | –
[2], x1 = 0.941 | – | – | – | 1.53252 ± 0.00075 | 1.52952 ± 0.00078 | 1.52555 ± 0.00081 | – | – | –
[2], x1 = 1 | – | – | – | 1.544 ± 0.0007 | 1.54099 ± 0.00078 | 1.53699 ± 0.00087 | – | – | –
